According to ChEMBL document CHEMBL3885881, “DrugMatrix”:

Organism: Rattus norvegicus
Test: DrugMatrix - Regimen: Daily Repeat
Assay type: toxicity, organism-based, Sprague-Dawley
Set-up: regimen Daily Repeat, gender Male, age 6-8 weeks
Conditions: in vivo, po, route oral GAVAGE, vehicle 100 % WATER; for ABSOLUTE BASOPHIL / ABSOLUTE EOSINOPHIL / ABSOLUTE LYMPHOCYTE / ABSOLUTE MONOCYTE / ABSOLUTE SEGMENTED NEUTROPHIL / BASOPHIL / EOSINOPHIL / ERYTHROCYTE COUNT / HEMATOCRIT / HEMOGLOBIN / LEUKOCYTE COUNT / LYMPHOCYTE / MEAN CORPUSCULAR HEMOGLOBIN / MEAN CORPUSCULAR HEMOGLOBIN CONCENTRATION / MEAN CORPUSCULAR VOLUME / MONOCYTE / NEUTROPHIL / NUCLEATED RED BLOOD CELLS / PLATELET COUNT: tissue Blood; for ALANINE AMINOTRANSFERASE / ALBUMIN / ALKALINE PHOSPHATASE / ASPARTATE AMINOTRANSFERASE / BLOOD UREA NITROGEN / CARBON DIOXIDE / CHLORIDE / CHOLESTEROL / CREATINE PHOSPHOKINASE / CREATININE / GLUCOSE / LACTATE DEHYDROGENASE / LIPASE / PHOSPHORUS / POTASSIUM / SODIUM / TOTAL BILIRUBIN / TOTAL PROTEIN / URIC ACID: tissue Plasma
[1] = 0 mg/kg, 72 h, dose level Control, time 3 day
[2] = 0 mg/kg, 120 h, dose level Control, time 5 day
[3] = 200 mg/kg, 72 h, dose level Low, time 3 day

For `O=C(O)c1cccnc1` [NIACIN], the “ABSOLUTE BASOPHIL” value [1] was 0 CELLS/uL, the “ABSOLUTE EOSINOPHIL” value [1] was 0 CELLS/uL and the “ABSOLUTE LYMPHOCYTE” value [1] was 10386.33 CELLS/uL. The “ABSOLUTE MONOCYTE” value [1] was 88.5 CELLS/uL, the “ABSOLUTE SEGMENTED NEUTROPHIL” value [1] was 1008.5 CELLS/uL and the BASOPHIL [1] was 0%. The EOSINOPHIL [1] was 0%, the “ERYTHROCYTE COUNT” value [1] was 5.16 x10E6/uL and the HEMATOCRIT [1] was 32.43%. For the same molecule, the HEMOGLOBIN [1] was 12.98 G/DL, the “LEUKOCYTE COUNT” value [1] was 11.48 x10E3/uL and the LYMPHOCYTE [1] was 92.33%. For the same molecule, the “MEAN CORPUSCULAR HEMOGLOBIN” value [1] was 25.23 pg, the “MEAN CORPUSCULAR HEMOGLOBIN CONCENTRATION” value [1] was 40.08 G/DL and the “MEAN CORPUSCULAR VOLUME” value [1] was 62.95 fL. For the same molecule, the MONOCYTE [1] was 0.67%, the NEUTROPHIL [1] was 7% and the “NUCLEATED RED BLOOD CELLS” value [1] was 0 /100WBC. The “PLATELET COUNT” value [1] was 1016.67 x10E3/uL, the “ALANINE AMINOTRANSFERASE” value [1] was 62.17 u/L and the ALBUMIN [1] was 3.95 G/DL. The “ALKALINE PHOSPHATASE” value [1] was 363.5 u/L, the “ASPARTATE AMINOTRANSFERASE” value [1] was 118 u/L and the “BLOOD UREA NITROGEN” value [1] was 14.5 mg/dL. For the same molecule, the “CARBON DIOXIDE” value [1] was 22.83 mmol/L, the CHLORIDE [1] was 100.67 MEQ/L and the CHOLESTEROL [1] was 66 mg/dL. The “CREATINE PHOSPHOKINASE” value [1] was 1308.83 u/L, the CREATININE [1] was 0.22 mg/dL and the GLUCOSE [1] was 187.5 mg/dL. For the same molecule, the “LACTATE DEHYDROGENASE” value [1] was 380.17 u/L, the LIPASE [1] was 16.17 u/L and the PHOSPHORUS [1] was 14.27 mg/dL. The POTASSIUM [1] was 6.8 MEQ/L, the SODIUM [1] was 142.53 MEQ/L and the “TOTAL BILIRUBIN” value [1] was 0.2 mg/dL. The “TOTAL PROTEIN” value [1] was 5.68 G/DL, the “URIC ACID” value [1] was 2.87 mg/dL and the “ABSOLUTE BASOPHIL” value [2] was 0 CELLS/uL. For the same molecule, the “ABSOLUTE EOSINOPHIL” value [2] was 80 CELLS/uL, the “ABSOLUTE LYMPHOCYTE” value [2] was 13301.33 CELLS/uL and the “ABSOLUTE MONOCYTE” value [2] was 180.83 CELLS/uL. The “ABSOLUTE SEGMENTED NEUTROPHIL” value [2] was 1187.83 CELLS/uL, the BASOPHIL [2] was 0% and the EOSINOPHIL [2] was 0.5%. The “ERYTHROCYTE COUNT” value [2] was 5.54 x10E6/uL, the HEMATOCRIT [2] was 35.65% and the HEMOGLOBIN [2] was 14.22 G/DL. The “LEUKOCYTE COUNT” value [2] was 14.75 x10E3/uL, the LYMPHOCYTE [2] was 90.67% and the “MEAN CORPUSCULAR HEMOGLOBIN” value [2] was 25.65 pg. The “MEAN CORPUSCULAR HEMOGLOBIN CONCENTRATION” value [2] was 39.88 G/DL, the “MEAN CORPUSCULAR VOLUME” value [2] was 64.35 fL and the MONOCYTE [2] was 1%. The NEUTROPHIL [2] was 7.83%, the “NUCLEATED RED BLOOD CELLS” value [2] was 0.17 /100WBC and the “PLATELET COUNT” value [2] was 1285.33 x10E3/uL. For the same molecule, the “ALANINE AMINOTRANSFERASE” value [2] was 51.67 u/L, the ALBUMIN [2] was 4.08 G/DL and the “ALKALINE PHOSPHATASE” value [2] was 391.5 u/L. For the same molecule, the “ASPARTATE AMINOTRANSFERASE” value [2] was 99.5 u/L, the “BLOOD UREA NITROGEN” value [2] was 15.5 mg/dL and the “CARBON DIOXIDE” value [2] was 28.33 mmol/L. For the same molecule, the CHLORIDE [2] was 101.83 MEQ/L, the CHOLESTEROL [2] was 67.83 mg/dL and the “CREATINE PHOSPHOKINASE” value [2] was 771.33 u/L. The CREATININE [2] was 0.23 mg/dL, the GLUCOSE [2] was 156.5 mg/dL and the “LACTATE DEHYDROGENASE” value [2] was 544.33 u/L. It also gave an LIPASE [2] of 10.17 u/L, a PHOSPHORUS [2] of 12.03 mg/dL and a POTASSIUM [2] of 6.81 MEQ/L. For the same molecule, the SODIUM [2] was 144.13 MEQ/L, the “TOTAL BILIRUBIN” value [2] was 0.22 mg/dL and the “TOTAL PROTEIN” value [2] was 6 G/DL. For the same molecule, the “URIC ACID” value [2] was 2.18 mg/dL, the “ABSOLUTE BASOPHIL” value [3] was 0 CELLS/uL and the “ABSOLUTE EOSINOPHIL” value [3] was 118.67 CELLS/uL. The “ABSOLUTE LYMPHOCYTE” value [3] was 13131.33 CELLS/uL, the “ABSOLUTE MONOCYTE” value [3] was 410.33 CELLS/uL and the “ABSOLUTE SEGMENTED NEUTROPHIL” value [3] was 1606.33 CELLS/uL. The BASOPHIL [3] was 0%, the EOSINOPHIL [3] was 0.67% and the “ERYTHROCYTE COUNT” value [3] was 5.09 x10E6/uL. The HEMATOCRIT [3] was 32.87%, the HEMOGLOBIN [3] was 13.13 G/DL and the “LEUKOCYTE COUNT” value [3] was 15.27 x10E3/uL. For the same molecule, the LYMPHOCYTE [3] was 86%, the “MEAN CORPUSCULAR HEMOGLOBIN” value [3] was 25.8 pg and the “MEAN CORPUSCULAR HEMOGLOBIN CONCENTRATION” value [3] was 39.97 G/DL. The “MEAN CORPUSCULAR VOLUME” value [3] was 64.6 fL, the MONOCYTE [3] was 2.67% and the NEUTROPHIL [3] was 10.67%. The “NUCLEATED RED BLOOD CELLS” value [3] was 0 /100WBC, the “PLATELET COUNT” value [3] was 1167 x10E3/uL and the “ALANINE AMINOTRANSFERASE” value [3] was 51 u/L. The ALBUMIN [3] was 4 G/DL, the “ALKALINE PHOSPHATASE” value [3] was 346.33 u/L and the “ASPARTATE AMINOTRANSFERASE” value [3] was 113.33 u/L. The “BLOOD UREA NITROGEN” value [3] was 12 mg/dL, the “CARBON DIOXIDE” value [3] was 23.33 mmol/L and the CHLORIDE [3] was 103.33 MEQ/L. For the same molecule, the CHOLESTEROL [3] was 74.67 mg/dL, the “CREATINE PHOSPHOKINASE” value [3] was 1459.33 u/L and the CREATININE [3] was 0.2 mg/dL. The GLUCOSE [3] was 170 mg/dL, the “LACTATE DEHYDROGENASE” value [3] was 168.33 u/L and the LIPASE [3] was 11 u/L. For the same molecule, the PHOSPHORUS [3] was 12.67 mg/dL, the POTASSIUM [3] was 5.75 MEQ/L and the SODIUM [3] was 144.4 MEQ/L. The “TOTAL BILIRUBIN” value [3] was 0.2 mg/dL, the “TOTAL PROTEIN” value [3] was 5.8 G/DL and the “URIC ACID” value [3] was 1.1 mg/dL.
